Source: US20060069132A1, “Azolecarboxamide herbicides” (priority 2004, published 2006)

How the values were obtained:
ducksalad [1] = assay: Test C flooded paddy test; type: in vivo, Heteranthera limosa
cocklebur = assay: Test B pre-/postemergence herbicide test; type: in vivo, Xanthium strumarium; conditions: for Cocklebur plant response rating: postemergence, scale 0 (no effect) to 100 (complete control)
Outline: (§1)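 Test chemicals in a non-phytotoxic solvent mixture with surfactant were applied preemergence to seeded species and postemergence to plants 2-18 cm tall (1- to 4-leaf stage); rice and barnyardgrass were also tested in a flooded paddy at the 2-leaf stage. Visual rating versus controls after 13-15 days in greenhouse, scale 0 (no effect) to 100 (complete control).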

rice [2] = assay: Test B pre-/postemergence herbicide test; type: in vivo, Oryza sativa; conditions: 0 = no effect, 100 = complete control, preemergence
Outline: (§2)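 Formulation: non-phytotoxic solvent mix with surfactant. Timing: preemergence on seed and postemergence on 2–18 cm plants, applied concurrently. Readout after 13–15 d greenhouse: visual 0–100 control rating against controls.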

morningglory = assay: Test B pre-/postemergence herbicide test; type: in vivo, Ipomoea coccinea; conditions: for Morningglory plant response rating: postemergence, scale 0 (no effect) to 100 (complete control)
Outline: as §1

lambsquarters = assay: Test B pre-/postemergence herbicide test; type: in vivo, Chenopodium album; conditions: for Lambsquarters plant response rating: postemergence, scale 0 (no effect) to 100 (complete control)
Outline: as §2

blackgrass = assay: Test B postemergence herbicide test; type: in vivo, Alopecurus myosuroides; conditions: postemergence, visual rating, scale 0 (no effect) to 100 (complete control)
Outline: (§3)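 Paddy species grown to the 2-leaf stage under flooding; blackgrass sprayed postemergence at 2–18 cm (1- to 4-leaf stage). Plants kept in a greenhouse for 13 to 15 days, then visually rated against controls on 0 (no effect) to 100 (complete control).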

giant foxtail = assay: Test B pre-/postemergence herbicide test; type: in vivo, Setaria faberi; conditions: for Foxtail, Giant plant response rating: postemergence, scale 0 (no effect) to 100 (complete control)
Outline: as §2

[3] = system: small flower umbrella sedge; assay: Test B flooded paddy test; type: in vivo, Cyperus difformis; conditions: 1000 g ai/ha, visual rating, scale 0 to 100 (0 no effect, 100 complete control), 13 to 15 days
Outline: as §3

barnyardgrass [4] = assay: Test C flooded paddy test; type: in vivo, Echinochloa crus-galli
Outline: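 Scoring by eye, 12–14 days post-treatment, greenhouse-held plants vs. controls; 0 no effect, 100 complete control. Sprayed at 1–4 leaves (2–18 cm); paddy barnyardgrass at 2 leaves, flooded.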

Surinam grass = assay: Test B pre-/postemergence herbicide test; type: in vivo, Urochloa decumbens; conditions: for Surinam Grass plant response rating: postemergence, scale 0 (no effect) to 100 (complete control)
Outline: as §2

velvetleaf = assay: Test B pre-/postemergence herbicide test; type: in vivo, Abutilon theophrasti; conditions: for Velvetleaf plant response rating: postemergence, scale 0 (no effect) to 100 (complete control)
Outline: as §2

rice [5] = assay: Test B flooded paddy test; type: in vivo, Oryza sativa; conditions: 1000 g ai/ha, visual rating, scale 0 to 100 (0 no effect, 100 complete control), 13 to 15 days
Outline: (§4)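 Scale 0–100: zero equals no visible effect, 100 complete control, judged by eye relative to controls. Timing: 13 to 15 days in greenhouse post-treatment. Growth stage at spraying: two leaves (paddy) or one to four leaves, 2–18 cm (postemergence).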

barnyardgrass [6] = assay: Test B flooded paddy test; type: in vivo, Echinochloa crus-galli; conditions: 1000 g ai/ha, visual rating, scale 0 to 100 (0 no effect, 100 complete control), 13 to 15 days
Outline: as §3

wild oat = assay: Test B postemergence herbicide test; type: in vivo, Avena fatua; conditions: postemergence, visual rating, scale 0 (no effect) to 100 (complete control)
Outline: as §4

barnyardgrass [7] = assay: Test B pre-/postemergence herbicide test; type: in vivo, Echinochloa crus-galli; conditions: for Barnyardgrass plant response rating: postemergence, scale 0 (no effect) to 100 (complete control)
Outline: as §1

wheat = assay: Test B postemergence herbicide test; type: in vivo, Triticum aestivum; design: key to Wheat plant response rating: 0 = no effect, 100 = complete control; conditions: postemergence, visual rating, scale 0 (no effect) to 100 (complete control)
Outline: as §4

rice [8] = assay: Test C flooded paddy test; type: in vivo, Oryza sativa
Outline: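 Postemergence sprays applied to plants 2 to 18 cm tall (1- to 4-leaf stage); paddy species grown to 2-leaf stage under flooding. After 12 to 14 days in greenhouse, visual rating versus untreated controls on 0–100 scale (0 no effect, 100 complete control).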

ducksalad [9] = assay: Test B flooded paddy test; type: in vivo, Heteranthera limosa; conditions: 1000 g ai/ha, visual rating, scale 0 to 100 (0 no effect, 100 complete control), 13 to 15 days
Outline: as §3

corn = assay: Test B pre-/postemergence herbicide test; type: in vivo, Zea mays; conditions: for Corn plant response rating: postemergence, scale 0 (no effect) to 100 (complete control)
Outline: as §2

pigweed = assay: Test B pre-/postemergence herbicide test; type: in vivo, Amaranthus retroflexus; conditions: for Pigweed plant response rating: postemergence, scale 0 (no effect) to 100 (complete control)
Outline: as §2

large crabgrass = assay: Test B pre-/postemergence herbicide test; type: in vivo, Digitaria sanguinalis; conditions: for Crabgrass, Large plant response rating: postemergence, scale 0 (no effect) to 100 (complete control)
Outline: as §2

[10] = system: smallflower umbrella sedge; assay: Test C flooded paddy test; type: in vivo, Cyperus difformis
[11] = 62 g ai/ha, scale 0 to 100 (0 no effect, 100 complete control)
[12] = 125 g ai/ha, scale 0 to 100 (0 no effect, 100 complete control)
[13] = 250 g ai/ha, scale of 0 to 100, 0 is no effect, 100 is complete control
[14] = 500 g ai/ha, visual rating after 12 to 14 days, scale 0 to 100 (0 no effect, 100 complete control)
[15] = 125 g ai/ha, 0 = no effect, 100 = complete control, preemergence
[16] = 500 g ai/ha, visual rating, 0 = no effect, 100 = complete control, preemergence

With `CCc1nc(C(C)(C)C)sc1C(=O)Nc1cccc(C(=O)N(C)CC)c1` [Compound 229] the “Ducksalad plant response rating” value (ducksalad [1]; [11]) was 0, the “Ducksalad plant response rating” value (ducksalad [1]; [12]) was 0 and the “Ducksalad plant response rating” value (ducksalad [1]; [13]) was 80. The “Plant response rating, Ducksalad” value (ducksalad [1]; [14]) was 85, the “Cocklebur plant response rating (0 to 100 scale)” value (cocklebur; [15]) was 0 and the “Plant response rating, Cocklebur” value (cocklebur; [16]) was 40. For the same compound, the “Cocklebur plant response rating” value (cocklebur; 125 g ai/ha, visual rating) was 20, the “Cocklebur plant response rating” value (cocklebur; 500 g ai/ha, visual rating) was 70 and the “Rice plant response rating (0 to 100 scale)” value (rice [2]; 125 g ai/ha) was 30. For the same compound, the “Plant response rating, Rice” value (rice [2]; 500 g ai/ha, visual rating) was 70, the “Morningglory plant response rating (0 to 100 scale)” value (morningglory; [15]) was 10 and the “Plant response rating, Morningglory” value (morningglory; [16]) was 20. The “Morningglory plant response rating” value (morningglory; 125 g ai/ha, visual rating) was 10, the “Morningglory plant response rating” value (morningglory; 500 g ai/ha, visual rating) was 70 and the “Lambsquarters plant response rating (0 to 100 scale)” value (lambsquarters; [15]) was 90. For the same compound, the “Plant response rating, Lambsquarters” value (lambsquarters; [16]) was 100, the “Lambsquarters plant response rating” value (lambsquarters; 125 g ai/ha, visual rating) was 70 and the “Lambsquarters plant response rating” value (lambsquarters; 500 g ai/ha, visual rating) was 80. For the same compound, the “Blackgrass plant response rating” value (blackgrass; 125 g ai/ha) was 30, the “Blackgrass plant response rating” value (blackgrass; 500 g ai/ha) was 30 and the “Foxtail, Giant plant response rating (0 to 100 scale)” value (giant foxtail; [15]) was 50. For the same compound, the “Plant response rating, Foxtail, Giant” value (giant foxtail; [16]) was 80, the “Foxtail, Giant plant response rating” value (giant foxtail; 125 g ai/ha, visual rating) was 30 and the “Foxtail, Giant plant response rating” value (giant foxtail; 500 g ai/ha, visual rating) was 50. For the same compound, the “Sedge, Umbrella plant response rating” value [3] was 80, the “Barnyardgrass plant response rating” value (barnyardgrass [4]; [11]) was 40 and the “Barnyardgrass plant response rating” value (barnyardgrass [4]; [12]) was 45. For the same compound, the “Barnyardgrass plant response rating” value (barnyardgrass [4]; [13]) was 75, the “Plant response rating, Barnyardgrass” value (barnyardgrass [4]; [14]) was 80 and the “Surinam Grass plant response rating (0 to 100 scale)” value (Surinam grass; [15]) was 40. For the same compound, the “Plant response rating, Surinam Grass” value (Surinam grass; [16]) was 80, the “Surinam Grass plant response rating” value (Surinam grass; 125 g ai/ha, visual rating) was 10 and the “Surinam Grass plant response rating” value (Surinam grass; 500 g ai/ha, visual rating) was 20. For the same compound, the “Velvetleaf plant response rating (0 to 100 scale)” value (velvetleaf; [15]) was 40, the “Plant response rating, Velvetleaf” value (velvetleaf; [16]) was 100 and the “Velvetleaf plant response rating” value (velvetleaf; 125 g ai/ha, visual rating) was 60. The “Velvetleaf plant response rating” value (velvetleaf; 500 g ai/ha, visual rating) was 70, the “Rice plant response rating” value (rice [5]) was 90 and the “Barnyardgrass plant response rating” value (barnyardgrass [6]) was 90. The “Oat, Wild plant response rating” value (wild oat; 125 g ai/ha) was 30, the “Oat, Wild plant response rating” value (wild oat; 500 g ai/ha) was 50 and the “Barnyardgrass plant response rating (0 to 100 scale)” value (barnyardgrass [7]; [15]) was 50. The “Plant response rating, Barnyardgrass” value (barnyardgrass [7]; [16]) was 90, the “Barnyardgrass plant response rating” value (barnyardgrass [7]; 125 g ai/ha, visual rating) was 20 and the “Barnyardgrass plant response rating” value (barnyardgrass [7]; 500 g ai/ha, visual rating) was 50. The “Wheat plant response rating” value (wheat; 125 g ai/ha) was 30, the “Wheat plant response rating” value (wheat; 500 g ai/ha) was 40 and the “Rice plant response rating” value (rice [8]; [11]) was 35. The “Rice plant response rating” value (rice [8]; [12]) was 35, the “Rice plant response rating” value (rice [8]; [13]) was 80 and the “Plant response rating, Rice” value (rice [8]; [14]) was 90. The “Ducksalad plant response rating” value (ducksalad [9]) was 90, the “Corn plant response rating (0 to 100 scale)” value (corn; [15]) was 10 and the “Plant response rating, Corn” value (corn; [16]) was 40. The “Corn plant response rating” value (corn; 125 g ai/ha, visual rating) was 10, the “Corn plant response rating” value (corn; 500 g ai/ha, visual rating) was 20 and the “Pigweed plant response rating (0 to 100 scale)” value (pigweed; [15]) was 100. For the same compound, the “Plant response rating, Pigweed” value (pigweed; [16]) was 100, the “Pigweed plant response rating” value (pigweed; 125 g ai/ha, visual rating) was 60 and the “Pigweed plant response rating” value (pigweed; 500 g ai/ha, visual rating) was 80. For the same compound, the “Crabgrass, Large plant response rating (0 to 100 scale)” value (large crabgrass; [15]) was 40, the “Plant response rating, Crabgrass, Large” value (large crabgrass; [16]) was 100 and the “Crabgrass, Large plant response rating” value (large crabgrass; 125 g ai/ha, visual rating) was 10. The “Crabgrass, Large plant response rating” value (large crabgrass; 500 g ai/ha, visual rating) was 20, the “Sedge, Umbrella plant response rating” value [10, 11] was 30 and the “Sedge, Umbrella plant response rating” value [10, 12] was 40. The “Sedge, Umbrella plant response rating” value [10, 13] was 80 and the “Plant response rating, Sedge, Umbrella” value [10, 14] was 80.
